US6143875A, “Antibody to DNase involved in apoptosis” (priority 1994, dated 2000)
Several values for one entry are separate records, joined by “and”; a condition that tells them apart may be missing. Equal values may be shown once.

Tests used:
[1] = target: T1, DNase γ (Rattus norvegicus, UniProt O89107); assay: DNase (endonuclease) activity assay, HeLa S3 nuclei as substrate (Assay 1); format: biochemical; settings: for optimal concentration for full DNase γ activity: both Ca2+ and Mg2+ required, other cation at 3 mM; for DNase activity (%) γ: optimal mixture =100%
T1 sequence (O89107 26-310): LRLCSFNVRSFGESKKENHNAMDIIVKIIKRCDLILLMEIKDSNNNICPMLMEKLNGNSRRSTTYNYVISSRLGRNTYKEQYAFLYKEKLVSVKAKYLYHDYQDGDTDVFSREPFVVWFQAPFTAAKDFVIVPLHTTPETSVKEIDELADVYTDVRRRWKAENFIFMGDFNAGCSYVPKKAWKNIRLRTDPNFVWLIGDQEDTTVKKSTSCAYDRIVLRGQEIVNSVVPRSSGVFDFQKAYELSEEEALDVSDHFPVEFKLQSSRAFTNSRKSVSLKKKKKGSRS
Experimental: (§1) The activity of endonuclease (DNase) can be assayed by observing fragmentation of chromosomal DNA in the nucleus on 2% agarose gel electrophoresis using, as a substrate, the nucleus of HeLa S3 cell (human cervical carcinoma epithelial cell) which is completely free of endogenous endonuclease [Biochem. Biophys. Res. Commun. 194, (1993), pp, 30-31].
(§2) To be specific, a reaction mixture (30 μl) of HeLa S3 cells (1.67×10^7 /ml) and DNase fraction is incubated at 37° C. for 60 minutes and the reaction is stopped by cooling same on ice. Then, the reaction mixture after reaction is centrifuged at 20,000× g for 20 seconds, and the precipitated nuclei are dissolved in a lysis buffer [50 mM Tris-HCl (pH 7.8), 10 mM EDTA, 0.5% w/v N-lauronyl sarcosylate Na]. The obtained DNA is thoroughly treated with 0.5 mg/ml RNase A for 20 minutes and with 0.5 mg/ml proteinase K for 30 minutes, after which they are subjected to 2% agarose gel electrophoresis. […] The ratio of fragmentation (percent fragmentation) is calculated from the density of DNA fragments with a molecular weight of less than 5 kb.
(§3) As a suitable reaction solution for the assay of the activity of DNases α and β, 50 mM MES-NaOH (-pH 5.6) buffer containing 3 mM MgCl2, 1 mM 2-mercaptoethanol and 0.1 mM PMSF is used. As a suitable reaction solution for the assay of the activity of DNase γ, 50 mM MOPS-NaOH (pH 7.2) buffer containing 3 mM CaCl2, 3 mM MgCl2, 1 mM 2-mercaptoethanol and 0.1 mM PMSF is used.
(§4) Effects of divalent cations on the activity of DNase α, […] were examined. To be specific, the effect of Mg^2+ was examined by assaying the activity of purified DNases α, β and γ in the presence of 3 mM CaCl2 with increasing concentrations of MgCl2. The effect of Ca^2+ was examined by assaying the activity of DNases α, β and γ purified in the same manner, with increasing concentrations of CaCl2 in the presence of 3 mM MgCl2. The effect of Zn^2+ was examined in 50 mM […] (pH 5.6) buffer containing 3 mM MgCl2, 1 mM 2-mercaptoethanol and 0.1 mM PMSF with increasing concentrations of ZnCl2 with regard to DNases α and β, and it was examined in 50 mM MOPS-NaOH (pH 7.2) buffer containing 3 mM CaCl2, 3 mM MgCl2, 1 mM 2-mercaptoethanol and 0.1 mM PMSF, with increasing concentrations of ZnCl2 with regard to DNase γ. The results are shown in FIG. 8, FIG. 8B, and FIG. 8C. As a result, DNase γ required both Ca^2+ and Mg^2+ for full activity, wherein the optimal concentration of the both was 1-3 mM (FIG. 8A and FIG. 8B). DNase γ was sensitive to Zn^2+, and its activity was inhibited by 50% by Zn^2+ with a low concentration of 40 μM (FIG. 8c).
(§5) The activity of DNases α and β was calculated relative to the endonuclease activity which was assayed using HeLa S3 cell nuclear chromatin DNA as a substrate and 50 mM MES-NaOH (pH 5.6) buffer containing 3 mM MgCl2, 1 mM 2-mercaptoethanol and 0.1 mM PMSF as a reaction solution, and taken as 100%; and the activity of DNase γ was calculated relative to the endonuclease activity which was assayed using HeLa S3 cell nuclear chromatin DNA as a substrate and 50 mM MOPS-NaOH (pH 7.2) buffer containing 3 mM CaCl2, 3 mM MgCl2, 1 mM 2-mercaptoethanol and 0.1 mM PMSF as a reaction solution, and taken as 100%. In the Table, "-" means deletion of said components from the above-mentioned optimal reaction mixture and "+" means addition of said components to the above-mentioned optimal reaction mixture.

[2] = tested on: DNase α; assay: as above; format: biochemical, rat; settings: for effect of divalent cation on DNase α activity: increasing concentrations of MgCl2 or CaCl2
Experimental: as §1, §2, §3, §4, §5

[3] = tested on: DNase β; assay: as above; format: biochemical, rat; settings: for effect of divalent cation on DNase β activity: increasing concentrations of MgCl2 or CaCl2
Experimental: as §1, §2, §3, §4, §5

[4] = tested on: DNA derived from HeLa S3 cell nuclei; assay: End labeling method, DNA cleavage mode; format: biochemical, human; settings: 3' and 5' end labeling with/without alkaline phosphatase
[5] = tested on: HeLa S3 cell nuclear chromatin DNA; assay: Endonuclease activity of purified DNases in HeLa S3 nuclear assay system; format: biochemical, human
Experimental: as §1, §2, §3
The optimal pH for the activity of DNases α, β and γ was determined by assaying HeLa S3 nuclei in various buffers from acidic to basic (Reference Example 3, Assay 1) and calculating from the percentage of DNA fragmentation.
as §5

[6] = +3 mM added to optimal reaction mixture (=100%)
[7] = +Mn2+ 3 mM, -Mg2+/Ca2+, optimal mixture =100%
[8] = +aurintricarboxylate 30 μM, optimal mixture =100%
[9] = +aurintricarboxylate 100 μM, optimal mixture =100%
[10] = +Zn2+ 0.1 mM, optimal mixture =100%
[11] = increasing ZnCl2 in pH 5.6 buffer, 3 mM MgCl2, read-out: Inhibition by Zn2+: IC50
[12] = up to the concentration of 1 mM

With [Cl-].[Cl-].[Mg+2] [Mg^2+] the “optimal concentration for full DNase γ activity” value [1] was 1 to 3 mM, the “DNase activity (%) α” value [2, 6] was 104% and the “effect of divalent cation on DNase α activity” value [2] was “not influenced”. The “DNase activity (%) β” value [3, 6] was 102% and the “effect of divalent cation on DNase β activity” value [3] was “not influenced”.

[Mn+2] [Mn^2+] was tested, and the “DNase activity (%) γ” value ([1]; +Mn2+ 3 mM, -Mg2+/Ca2+) was 45%, the “DNase activity (%) α” value [2, 7] was 104% and the “DNase activity (%) β” value [3, 7] was 103%.

For O=C(O)C1=CC(=C(c2ccc(O)c(C(=O)O)c2)c2ccc(O)c(C(=O)O)c2)C=CC1=O [aurintricarboxylic acid], the “DNase activity (%) γ” value ([1]; +aurintricarboxylate 30 μM) was 29%, the “DNase activity (%) γ” value ([1]; +aurintricarboxylate 100 μM) was 0% and the “inhibition of DNase γ activity” value ([1]; at a concentration of 100 μM) was “completely inhibited”. The “inhibition of DNase α activity” value [2] was “completely inhibited”, the “DNase activity (%) α” value [2, 8] was 32% and the “DNase activity (%) α” value [2, 9] was 0%. The “DNase activity (%) β” value [3, 8] was 0%, the “DNase activity (%) β” value [3, 9] was 0% and the “inhibition of DNase β activity” value ([3]; at a concentration of 100 μM) was “completely inhibited”.

With [Cl-].[Cl-].[Zn+2] [Zn^2+] the “DNase activity (%) γ” value ([1]; +Zn2+ 0.1 mM) was 21%, the IC50 ([1]; increasing ZnCl2 in 50 mM MOPS-NaOH (pH 7.2), 3 mM CaCl2, 3 mM MgCl2, read-out: Inhibition by Zn2+: IC50) was 40 µM and the “DNase activity (%) α” value [2, 10] was 90%. For the same molecule, the IC50 [2, 11] was no less than 1000 µM, the “effect of Zn2+ on DNase α activity” value [2, 12] was “not influenced” and the “DNase activity (%) β” value [3, 10] was 93%. The IC50 [3, 11] was no less than 1000 µM and the “effect of Zn2+ on DNase β activity” value [3, 12] was “not influenced”.

With [Ca+2].[Cl-].[Cl-] [Ca^2+] the “optimal concentration for full DNase γ activity” value [1] was 1 to 3 mM, the “DNase activity (%) α” value [2, 6] was 101% and the “effect of divalent cation on DNase α activity” value [2] was “not influenced”. The “DNase activity (%) β” value [3, 6] was 104% and the “effect of divalent cation on DNase β activity” value [3] was “not influenced”.

B1: DNase γ: novel endonuclease of rat cell nuclei cleaving linker sites of chromatin DNA; SEQ ID NO: 1, amino acids 26-310 (protein)
chain: LRLCSFNVRSFGESKKENHNAMDIIVKIIKRCDLILLMEIKDSNNNICPMLMEKLNGNSRRSTTYNYVISSRLGRNTYKEQYAFLYKEKLVSVKAKYLYHDYQDGDTDVFSREPFVVWFQAPFTAAKDFVIVPLHTTPETSVKEIDELADVYTDVRRRWKAEIFIFMGDFNAGCSYVPKKAWKNIRLRTDPNFVWLIGDQEDTTVKKSTSCAYDRIVVRGQEIVNSVVPRSSGVFDFQKAYELSEEEALDVSDHFPVEFKLQSSRAFTNSRKSVSLKKKKKGSRS
B1 was tested, and the DNA cleavage mode [4] was 3'-OH/5'-P termini and 3'--OH, 5'-P end forming type, the Divalent cation dependency [5] was “Ca^2+ /Mg^2+, Mn^2+ dependent” and the “DNase activity (%)” value ([5]; -2-mercaptoethanol (deleted from optimal reaction mixture =100%)) was 96%. The “DNase activity (%)” value ([5]; -Ca2+ (deleted from optimal reaction mixture =100%)) was 1%, the “DNase activity (%)” value ([5]; -Mg2+ (deleted from optimal reaction mixture =100%)) was 16% and the “DNase activity (%)” value ([5]; -PMSF (deleted from optimal reaction mixture =100%)) was 94%.
